The source of these data is patent US5541163A, “Renin inhibiting N-(2-amino-2-oxoethyl)butanediamide derivatives” (Bio-Mega/Boehringer Ingelheim Research Inc., priority 1993, dated 1996).

In the assay the target is T1, human renin (Homo sapiens, UniProt P00797).
T1 construct: A human plasma pool is used as the source of both the substrate (angiotensinogen) and the enzyme (renin); from tissue; host or cells: human plasma pool
T1 sequence (P00797 67-406): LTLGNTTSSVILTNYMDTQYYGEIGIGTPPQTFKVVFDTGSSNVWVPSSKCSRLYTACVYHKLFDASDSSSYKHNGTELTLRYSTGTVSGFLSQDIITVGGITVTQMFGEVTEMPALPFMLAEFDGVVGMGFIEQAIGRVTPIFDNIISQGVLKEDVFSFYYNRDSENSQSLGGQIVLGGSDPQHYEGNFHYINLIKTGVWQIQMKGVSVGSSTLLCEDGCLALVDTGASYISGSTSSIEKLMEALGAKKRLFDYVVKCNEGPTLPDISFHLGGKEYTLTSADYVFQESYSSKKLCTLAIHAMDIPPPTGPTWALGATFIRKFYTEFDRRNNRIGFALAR
In words: Plasma renin assay (inhibition of human renin, angiotensin I by RIA). The assay is classed as biochemical. To be noted: human plasma pool, pH 6.0, 2 h incubation at 37°. The procedure: The assay is performed as follows: The test compound (i.e. the inhibitor) is dissolved in dimethylsulfoxide (1 mM stock solution) and diluted with an aqueous buffer solution of 270 mM 2-(N-morpholino)ethanesulfonic acid and 1% human serum albumin (pH 5.85, also containing dimercaprol and 8-hydroxyquinoline sulfate in accordance with the instructions of the RIA kit noted below) to give an assay mixture in which the final dimethylsulfoxide content is 1% (v/v).
A human plasma pool is used as the source of both the substrate (angiotensinogen) and the enzyme (renin). The reaction is initiated by the addition of 50 μL of human plasma pool to 50 μL of various concentrations of inhibitor in the 1% dimethylsulfoxide assay buffer. The plasma renin activity is measured by the amount of angiotensin I generated at pH 6.0 following a 2 h incubation at 37°.
Quantitation of angiotensin I is performed by radioimmunoassay (RIA kit from New England Nuclear-Dupont, Mississauga, ON, Canada). The enzymatic activity of renin is expressed in ng of angiotensin I generated (/mL/2 h). The extent of inhibition of the reaction is determined from the amount of angiotensin I generated in reference to a control prepared without inhibitor. Nonlinear regression analysis is used to calculate the IC50 values, i.e. the molar concentration of the test compound required to cause a 50% inhibition of the enzyme activity.
For the compound `CC(C)C[C@H](O)[C@H](O)[C@H](CC1CCCCC1)NC(=O)[C@@H](CC(=O)N(CC(=O)N(C)C)[C@H](C)c1ccccc1)CC1CC1` [Compound 16, N^4-[2-(dimethylamino)-2-oxoethyl]-N^4-[1(R)-phenylethyl]-N^1-[1(S)-(cyclohexylmethyl)-2(R),3(S)-dihydroxy-5-methylhexyl]-2(R)-(cyclopropylmethyl)butanediamide], the IC50 (usually the concentration that gives 50% inhibition) was found to be 460 nM.
With `CC(C)C[C@H](O)[C@H](O)[C@H](CC1CCCCC1)NC(=O)[C@@H](CC(=O)N(CC(=O)N(C)C)[C@@H](C)c1ccccc1)CC1CC1` [Compound 17, N^4-[2-(dimethylamino)-2-oxoethyl]-N^4-[1(S)-phenylethyl]-N^1-[1(S)-(cyclohexylmethyl)-2(R),3(S)-dihydroxy-5-methylhexyl]-2(R)-(cyclopropylmethyl)butanediamide] the figure was 34 nM; with `CC(C)C[C@H](O)[C@H](O)[C@H](CC1CCCCC1)NC(=O)[C@@H](CC(=O)N(CC(=O)N(C)C)[C@@H](C)c1cccc2ccccc12)CC1CC1` [Compound 18, N^4-[2-(dimethylamino)-2-oxoethyl]-N^4-[1(S)-(1-naphthylethyl)]-N^1-[1(S)-(cyclohexylmethyl)-2(R),3(S)-dihydroxy-5-methylhexyl]-2(R)-(cyclopropylmethyl)butanediamide], 170 nM; with `CC(C)C[C@H](O)[C@H](O)[C@H](CC1CCCCC1)NC(=O)[C@@H](CC(=O)N(CC(=O)N(C)C)C[C@H](C)c1ccccc1)CC1CC1` [Compound 19, N^4-[2-(dimethylamino)-2-oxoethyl]-N^4-[2(R)-phenylpropyl]-N^1-[1(S)-(cyclohexylmethyl)-2(R),3(S)-dihydroxy-5-methylhexyl]-2(R)-(cyclopropylmethyl)butanediamide], 69 nM.
The compound `CC(C)C[C@H](O)[C@H](O)[C@H](CC1CCCCC1)NC(=O)[C@@H](CC(=O)N(CC(=O)N(C)C)C[C@@H](C)c1ccccc1)CC1CC1` [Compound 20, N^4-[2-(dimethylamino)-2-oxoethyl]-N^4-(2(S)-phenylpropyl]-N^1-(1(S)-(cyclohexylmethyl)-2(R),3(S)-dihydroxy-5-methylhexyl]-2(R)-(cyclopropylmethyl)butanediamide] had an IC50 of 37 nM.
Compound `CC(C)C[C@H](O)[C@H](O)[C@H](CC1CCCCC1)NC(=O)[C@@H](CC(=O)N(CC(=O)N(C)C)CC(C)(C)c1ccccc1)CC1CC1` [Compound 21, N^4-[2-(dimethylamino)-2-oxoethyl]-N^4-(2-methyl-2-phenylpropyl)-N^1-[1(S)-(cyclohexylmethyl)-2(R),3(S)-dihydroxy-5-methylhexyl]-2(R)-(cyclopropylmethyl)butanediamide] yielded an IC50 of 150 nM.
In the case of `CC(C)C[C@H](O)[C@H](O)[C@H](CC1CCCCC1)NC(=O)[C@@H](CC(=O)N(CC(=O)N(C)CCc1ccccn1)[C@@H](C)c1ccccc1)CC1CC1` [Compound 22, N^4-[1(S)-phenylethyl]-N^4 -{2-{methyl[2-(2-pyridinyl)ethyl]-amino}-2-oxoethyl}-N^1-(1(S)-(cyclohexylmethyl)-2(R),3(S)-dihydroxy-5-methylhexyl]-2(R)-(cyclopropylmethyl)-butanediamide] it was 20 nM.
For the compound `CC(C)C[C@H](O)[C@H](O)[C@H](CC1CCCCC1)NC(=O)[C@@H](CC(=O)N(CC(=O)N(C)CCN(C)C)[C@@H](C)c1ccccc1)CC1CC1` [Compound 23, N^4 -{2-{[2-(dimethylamino)ethyl]methylamino}-2-oxoethyl}-N^4-[1(S)-phenylethyl]-N^1-[1(S)-(cyclohexylmethyl)-2(R),3(S)-dihydroxy-5-methylhexyl]-2(R)-(cyclopropylmethyl)-butanediamide], half-maximal inhibition (IC50) required 26 nM.
For `CCN(CC)CCN(C)C(=O)CN(C(=O)C[C@@H](CC1CC1)C(=O)N[C@@H](CC1CCCCC1)[C@@H](O)[C@@H](O)CC(C)C)[C@@H](C)c1ccccc1` [Compound 24, N^4 -{2-{[2-(diethylamino)ethyl]methylamino}-2-oxoethyl}-N^4-[1(S)-phenylethyl]-N^1-[1(S)-(cyclohexylmethyl)-2(R),3(S)-dihydroxy-5-methylhexyl]-2(R)-(cyclopropylmethyl)-butanediamide], the IC50 turned out to be 61 nM.
With `CCC[C@H](CC(=O)N(CC(=O)N(C)C)[C@@H](C)c1ccccc1)C(=O)N[C@@H](CC1CCCCC1)[C@@H](O)[C@@H](O)CC(C)C` [Compound 25, N^4-[2-(dimethylamino)-2-oxoethyl]-N^4-[1(S)-phenylethyl]-N^1-[1(S)-(cyclohexylmethyl)-2(R),3(S)-dihydroxy-5-methylhexyl]-2(R)-propylbutanediamide] the figure was 34 nM; with `CCC[C@H](CC(=O)N(CC(=O)N(C)CCc1ccccn1)Cc1ccccc1)C(=O)N[C@@H](CC1CCCCC1)[C@@H](O)[C@@H](O)CC(C)C` [Compound 26, N^4-benzyl-N^4 -{2-{methyl[2-(2-pyridinyl)ethyl]amino}-2-oxoethyl}-N^1-[1(S)-(cyclohexylmethyl)-2(R),3(S)-dihydroxy-5-methylhexyl]-2(R)-propylbutanediamide], 29 nM.
The compound `CC(C)C[C@H](O)[C@H](O)[C@H](CC1CCCCC1)NC(=O)[C@@H](CC(=O)N(CC(=O)N(C)C)[C@@H](C)c1ccccc1)Cc1c[nH]cn1` [Compound 27, N^4-[2-(dimethylamino)-2-oxoethyl]-N^4-(1(S)-phenylethyl]-N^1-[1(S)-(cyclohexylmethyl)-2(R),3(S)-dihydroxy-5-methylhexyl]-2(R)-(1H-imidazol-4-ylmethyl)butanediamide] gave an IC50 of 6 nM.
`CC(C)C[C@H](O)[C@H](O)[C@H](CC1CCCCC1)NC(=O)[C@@H](CC(=O)N(CC(=O)N(C)C)[C@@H](C)c1ccccc1)Cc1csc(N)n1` [Compound 28, N^4-[2-(dimethylamino)-2-oxoethyl]-N^4-[1(S)-phenylethyl]-N^1-[1(S)-(cyclohexylmethyl)-2(R),3(S)-dihydroxy-5-methylhexyl]-2(R)-[(2-amino-4-thiazolyl)methyl]butanediamide] gave an IC50 of 1.3 nM.
Compound `CC(C)C[C@H](O)[C@H](O)[C@H](CC1CCCCC1)NC(=O)[C@@H](CC(=O)N(CC(=O)N(C)CCc1ccncc1)Cc1ccccc1)CC1CC1` [Compound 29, N^4-benzyl-N^4 -{2-{methyl[2-(4-pyridinyl)ethyl]amino}-2-oxoethyl}-N^1-[1(S)-(cyclohexylmethyl)-2(R)3(S)-dihydroxy-5-methylhexyl]-2(R)-(cyclopropylmethyl)butanediamide] displayed an IC50 of 68 nM.
Consider `CC(C)C[C@H](O)[C@H](O)[C@H](CC1CCCCC1)NC(=O)[C@@H](CC(=O)N(CC(=O)N(C)C)[C@@H](C)c1ccccc1)Cc1cscn1` [Compound 30, N^4-[2-(dimethylamino)-2-oxoethyl]-N^4-[1(S)-phenylethyl]-N^1-[1(S)-(cyclohexylmethyl)-2(R),3(S)-dihydroxy-5-methylhexyl]-2(R)-(4-thiazolylmethyl)butanediamide], for which half-maximal inhibition (IC50) was put at 2.5 nM.
In the case of `CC(C)C[C@H](O)[C@H](O)[C@H](CC1CCCCC1)NC(=O)[C@@H](CC(=O)N(CC(=O)N(C)C)CC1CCCCC1)CC1CC1` [Compound 31, N^4-(cyclohexylmethyl)-N^4-(2-(dimethylamino)-2-oxoethyl]-N^1-[1(S)-(cyclohexylmethyl)-2(R),3(S)-dihydroxy-5-methylhexyl]-2(R)-(cyclopropylmethyl)butanediamide] it was 13 nM; in that of `CC(C)C[C@H](O)[C@H](O)[C@H](CC1CCCCC1)NC(=O)[C@@H](CC(=O)N(CC(=O)N(C)C)[C@@H](C)c1ccccc1)Cc1cccs1` [Compound 32, N^4-(2-(dimethylamino)-2-oxoethyl]-N^4-(1(S)-phenylethyl]-N^1-[1(S)-(cyclohexylmethyl)-2(R),3(S)-dihydroxy-5-methylhexyl]-2(S)-(2-thienylmethyl)butanediamide], 13 nM.
The compound `CC(C)C[C@H](O)[C@H](O)[C@H](CC1CCCCC1)NC(=O)[C@@H](CC(=O)N(CC(=O)N1CCOCC1)[C@@H](C)c1ccccc1)CC1CC1` [Compound 33, N^4-[1(S)-phenylethyl-N^4-(2-morpholino-2-oxoethyl)-N^1-1(S)-(cyclohexylmethyl)-2(R),3(S)-dihydroxy-5-methylhexyl]-2(R)-(cyclopropylmethyl)butanediamide] yielded an IC50 of 120 nM. Against the preceding compound, the IC50 is about 9.2-fold higher.
With `CC(C)C[C@H](O)[C@H](O)[C@H](CC1CCCCC1)NC(=O)[C@@H](CC(=O)N(CC(=O)N(C)CCc1ccccn1)Cc1ccccc1)Cc1cccs1` [Compound 34, N^4-benzyl-N^4 -{2-{methyl[2-(2-pyridinyl)ethyl]amino}-2-oxoethyl}-N^1-[1(S)-(cyclohexylmethyl)-2(R),3(S)-dihydroxy-5-methylhexyl]-2(S)-(2-thienylmethyl)butanediamide] the figure was 13 nM.
